Data on 23 compounds can be found in ChEMBL document CHEMBL2311449, “Synthesis and evaluation of diphenylphosphinic amides and diphenylphosphine oxides as inhibitors of Kv1.5” (Bioorg Med Chem Lett, 2013).

Series [1] in a line: Lipophilicity, log D of compound at pH 7.4. The settings on record: buffer. Format: physicochemical.
Series [2] concerns the target Potassium voltage-gated channel subfamily A member 5 (Homo sapiens, UniProt P22460). Briefly: Inhibition of human Kv1.5 channel expressed in CHO cells by high throughput planar patch clamp assay. It counts as cell-based.
The target in series [3] is Intermediate conductance calcium-activated potassium channel protein 4 (Homo sapiens, UniProt O15554). Briefly: Inhibition of IK channel (unknown origin).
Chain of Intermediate conductance calcium-activated potassium channel protein 4 (O15554 whole entry): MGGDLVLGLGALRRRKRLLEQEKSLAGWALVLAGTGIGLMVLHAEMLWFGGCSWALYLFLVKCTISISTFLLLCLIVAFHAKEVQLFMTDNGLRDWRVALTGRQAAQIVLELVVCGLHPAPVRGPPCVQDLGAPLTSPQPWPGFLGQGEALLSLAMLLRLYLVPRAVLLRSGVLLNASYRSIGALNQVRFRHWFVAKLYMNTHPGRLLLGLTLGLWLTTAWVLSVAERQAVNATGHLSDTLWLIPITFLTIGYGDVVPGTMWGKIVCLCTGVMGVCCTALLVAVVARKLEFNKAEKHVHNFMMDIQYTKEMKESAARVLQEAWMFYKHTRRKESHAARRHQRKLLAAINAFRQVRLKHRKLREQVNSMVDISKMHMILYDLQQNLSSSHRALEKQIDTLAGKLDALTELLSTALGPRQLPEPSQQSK
Series [4] concerns the target Voltage-gated inwardly rectifying potassium channel KCNH2 (Homo sapiens, UniProt Q12809).
Series [5] relates to Oryctolagus cuniculus. Briefly: Toxicity in New Zealand white rabbit assessed as CNS effect at 0.1 and 1 umol/kg/min. The note with it: in vivo. Format: organism-based, Central nervous system.
A short description of series [6]: Intrinsic clearance in human liver microsomes. Format: ADME, Microsome. The settings on record: read-out: CLH.
The nature of series [7]: Apparent permeability of the compound in human Caco2 cells. It counts as ADME, cell-based. The note with it: Caco-2.
The nature of series [8]: Clearance in rat. It counts as ADME, organism-based. The settings on record: in vivo.
The test system of series [9] is Plasma. Nature of the series: Unbound steady state plasma concentration in New Zealand white rabbit assessed as concentration required to 20% change in atrium effective refractory period at 0.1 and 1 umol/kg/min for 15 mins infusions. The settings on record: 0.25 h. Format: ADME, cell-free, Oryctolagus cuniculus.
A short description of series [10]: Solubility of the compound at pH 7.4. It counts as physicochemical. The settings on record: buffer.
Series [11] deals with Oryctolagus cuniculus. Briefly: Increase of effective refractory period in New Zealand white rabbit assessed as maximum change in QT interval at 0.1 and 1 umol/kg/min for 15 mins infusions. Format: functional.
The species entered for series [12] is Oryctolagus cuniculus. Nature of the series: Toxicity in New Zealand white rabbit assessed as CNS effect at plasma concentration of 3 to 4 times 20% change in atrium effective refractory period. It counts as organism-based. The settings on record: in vivo.
A short description of series [13]: Oral bioavailability in rat. Format: ADME, organism-based. The note with it: in vivo.

Values after ≈ are worked out from the molar mass of the structure shown.

Chain of Voltage-gated inwardly rectifying potassium channel KCNH2 (Q12809 whole entry): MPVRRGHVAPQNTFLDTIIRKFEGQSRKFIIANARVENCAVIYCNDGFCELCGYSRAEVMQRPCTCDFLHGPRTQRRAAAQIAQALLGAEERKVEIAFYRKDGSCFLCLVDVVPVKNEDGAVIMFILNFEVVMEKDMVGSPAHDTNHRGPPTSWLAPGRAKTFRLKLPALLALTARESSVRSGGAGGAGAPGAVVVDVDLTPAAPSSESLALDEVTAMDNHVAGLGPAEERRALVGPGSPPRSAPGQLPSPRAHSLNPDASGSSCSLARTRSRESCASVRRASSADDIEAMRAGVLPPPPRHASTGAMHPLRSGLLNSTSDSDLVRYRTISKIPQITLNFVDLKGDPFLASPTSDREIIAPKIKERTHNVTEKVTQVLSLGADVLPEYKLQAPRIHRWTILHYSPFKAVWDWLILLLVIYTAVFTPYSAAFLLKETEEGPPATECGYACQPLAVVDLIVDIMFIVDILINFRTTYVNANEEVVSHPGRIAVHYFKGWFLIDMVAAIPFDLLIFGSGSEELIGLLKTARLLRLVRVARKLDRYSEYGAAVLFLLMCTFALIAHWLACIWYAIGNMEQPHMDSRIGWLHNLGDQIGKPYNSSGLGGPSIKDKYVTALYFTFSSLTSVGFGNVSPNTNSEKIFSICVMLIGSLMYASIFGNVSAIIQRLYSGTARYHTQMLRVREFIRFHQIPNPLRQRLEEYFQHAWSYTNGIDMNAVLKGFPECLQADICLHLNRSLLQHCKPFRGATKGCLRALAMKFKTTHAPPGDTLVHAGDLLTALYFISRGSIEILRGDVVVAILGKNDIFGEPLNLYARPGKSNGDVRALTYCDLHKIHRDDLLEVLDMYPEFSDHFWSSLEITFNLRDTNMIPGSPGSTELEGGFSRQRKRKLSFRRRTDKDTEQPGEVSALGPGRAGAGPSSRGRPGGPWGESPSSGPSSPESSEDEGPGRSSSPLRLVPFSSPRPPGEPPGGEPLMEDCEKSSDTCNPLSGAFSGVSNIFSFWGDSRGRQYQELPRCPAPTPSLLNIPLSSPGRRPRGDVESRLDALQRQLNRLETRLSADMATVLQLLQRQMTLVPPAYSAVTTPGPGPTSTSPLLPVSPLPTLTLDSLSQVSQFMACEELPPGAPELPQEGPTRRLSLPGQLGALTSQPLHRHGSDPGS
Chain of Potassium voltage-gated channel subfamily A member 5 (P22460 whole entry): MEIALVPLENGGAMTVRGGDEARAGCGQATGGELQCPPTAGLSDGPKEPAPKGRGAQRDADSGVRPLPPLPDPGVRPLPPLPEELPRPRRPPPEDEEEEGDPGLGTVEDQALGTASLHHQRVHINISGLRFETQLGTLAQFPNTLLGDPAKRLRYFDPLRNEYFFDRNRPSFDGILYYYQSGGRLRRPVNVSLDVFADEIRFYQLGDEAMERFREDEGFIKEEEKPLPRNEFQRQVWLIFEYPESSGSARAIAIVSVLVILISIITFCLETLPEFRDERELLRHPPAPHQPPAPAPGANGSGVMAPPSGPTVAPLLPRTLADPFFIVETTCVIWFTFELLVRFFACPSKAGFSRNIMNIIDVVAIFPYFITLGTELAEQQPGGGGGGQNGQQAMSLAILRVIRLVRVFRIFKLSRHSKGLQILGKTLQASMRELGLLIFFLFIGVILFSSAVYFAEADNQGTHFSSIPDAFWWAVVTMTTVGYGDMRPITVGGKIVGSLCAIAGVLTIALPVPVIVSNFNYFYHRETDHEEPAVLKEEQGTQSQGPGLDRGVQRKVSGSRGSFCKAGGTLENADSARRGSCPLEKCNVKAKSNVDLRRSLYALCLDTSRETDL

In turn, `CC(C)[C@@H]1CC[C@@H](C)C[C@@H]1P(=O)(c1ccccc1)c1ccccc1` gave a log distribution coefficient (logD) in series [1] of 6.

In [2], `c1ccc([C@H]([C@@H](c2ccccc2)N2CCCCC2)N2CCCCC2)cc1` gave an IC50 of 1700 nM.

On to `CCCN(c1cccc(C#N)c1)P(=O)(c1ccccc1)c1ccccc1`, for which the 50% inhibitory concentration (IC50) was 2.7 µM in [3], above 33 µM in series [4] and 200 nM in series [2].

Regarding `CCCN(c1cccc(S(C)(=O)=O)c1)P(=O)(c1ccccc1)c1ccccc1`, the IC50 is above 33 µM in [3], above 33 µM in series [4] and 930 nM in [2]. The Activity result in [5] is recorded as “Toxic”.

Consider `COc1ccc(-c2ncccc2NP(=O)(c2ccccc2)c2ccccc2)cc1`, for which the results for the IC50 in series [4] and in series [2] were above 33 µM and 17000 nM, respectively.

Turning to `O=P(Nc1cc(F)ccc1-n1cccn1)(c1ccccc1)c1ccccc1`, the IC50 is 7.8 µM in series [3], above 33 µM in [4] and 4100 nM in series [2].

On to `O=P(NCc1ccccc1-c1cccnc1)(c1ccccc1)c1ccccc1`, for which the IC50 was above 33 µM in [3], above 33 µM in series [4] and 2300 nM in series [2].

Regarding `O=P(c1ccccc1)(c1ccccc1)C(c1cccnc1)c1cccnc1`, the values for the IC50 in series [3] and in [2] were 1 µM and 180 nM, respectively.

On to `O=P(NCc1cccnc1-c1cccc(Cl)c1)(c1ccccc1)c1ccccc1`, for which the IC50 was determined as 4.9 µM in series [3] and 330 nM in [2].

Take `N#Cc1cccc(-c2ncccc2CNP(=O)(c2ccccc2)c2ccccc2)c1`: the IC50 in [3] was determined as 7.7 µM; in series [2] it was 540 nM. In addition, the Activity entry in [5] is “Toxic”.

As to `O=P(NCc1cccnc1-c1cc(Cl)cc(Cl)c1)(c1ccccc1)c1ccccc1`, the IC50 in series [3] turned out to be 13 µM; in [2], 80 nM.

For the compound `O=P(NCc1cccnc1-c1cccnc1)(c1ccccc1)c1ccccc1`, the half-inhibitory concentration (IC50) in series [3] worked out at 33 µM; in series [2], 2700 nM.

For `CCCN(c1cccnc1)P(=O)(c1ccccc1)c1ccccc1`, in series [6], the microsomal CLint stood at 158 µL/min/mg. Moreover, the IC50 is 14 µM in series [3], above 33 µM in series [4] and 120 nM in series [2]. The Papp in series [7] was 30 ×10⁻⁶ cm/s. In series [8], this compound had a clearance of 11 mL/min/kg. For the same compound, the “Cp(f)ss” value in [9] came out at 0.8 µM. In addition, the concentration in solution in series [10] (solubility) came to 91 µM (≈ 30.6 µg/mL). The same compound gave a logD in [1] of 2.6. Further, the Activity in series [11] is on record as 23%; in series [12] it was “Toxic”. Also, the bioavailability in series [13] stood at 55%.

Turning to `O=P(Nc1cccnc1)(c1ccccc1)c1ccccc1`, the half-maximal inhibitory concentration (IC50) in [4] is above 33 µM; in [2] it was above 30000 nM.

In series [2], `O=P(c1ccccc1)(c1ccccc1)N(c1cccnc1)c1cccnc1` yielded an IC50 of 1600 nM.

For the compound `O=P(c1ccccc1)(c1ccccc1)N(Cc1ccccn1)c1cccnc1`, the values for the half-inhibitory concentration (IC50) in series [3], in series [4] and in [2] were 10 µM, above 33 µM and 530 nM, respectively. The Activity entry in series [5] was “Toxic”.

Turning to `COCCN(c1cccnc1)P(=O)(c1ccccc1)c1ccccc1`, the concentration for half-maximal inhibition (IC50) in [3] was above 33 µM; in series [4] it was above 33 µM; in series [2], 620 nM.

With `N#CCCCN(c1cccnc1)P(=O)(c1ccccc1)c1ccccc1`, the half-inhibitory concentration (IC50) was 31 µM in series [3], above 33 µM in series [4] and 1900 nM in [2].

Turning to `O=P(c1ccccc1)(c1ccccc1)N(Cc1ccccn1)Cc1ccccn1`, the values for the IC50 in [3], in series [4] and in series [2] were above 33 µM, above 33 µM and 1300 nM, respectively. Moreover, the Activity entry in series [5] is “Toxic”.

Consider `CCCN(c1cncnc1)P(=O)(c1ccccc1)c1ccccc1`, for which the concentration for half-maximal inhibition (IC50) in series [3] was above 33 µM; in [2] it was 1000 nM. For the same compound, in series [9], the “Cp(f)ss” value turned out to be 0.6 µM. Besides, the Activity in [11] was below 10%; in series [12], “Toxic”.

As to `O=P(c1ccccc1)(c1ccccc1)C(c1ccccc1)c1cccnc1` (racemic), the values for the IC50 in series [3] and in series [2] were 0.5 µM and 100 nM, respectively.

As for `O=P(c1ccccc1)(c1ccccc1)C(c1cccnc1)N1CCCCC1` (racemic), the 50% inhibitory concentration (IC50) in [3] amounted to 1.8 µM; in series [2] it was 140 nM.

As for `CCCNC(c1cccnc1)P(=O)(c1ccccc1)c1ccccc1` (racemic), the concentration for half-maximal inhibition (IC50) turned out to be 14 µM in series [3] and 750 nM in [2].
